In PMC6199744, “Development of Chemical Proteomics for the Folateome and Analysis of the Kinetoplastid Folateome” (ACS Infectious Diseases, 2018):
Several values for one entry are separate records, joined by “and”; a condition that tells them apart may be missing. Equal values may be shown once. Read-outs that look alike come from different tables or passages of the source.

Test system: T. brucei lysate proteins
Format: binding, Trypanosoma brucei

`CCCCCCOc1cccc(Cc2cnc(N)nc2N)c1` [compound 2] was tested, and the “fold change - vehicle control” value was 1 and 0.55 and 0.88 and 0.98 and 0.99, the “fold change - vehicle control” value (protein RHS6A (CZT00028360.1)) was 0.94 and the “fold change - vehicle control” value (protein TB09.160.1250 HY[…], CONSERVED) was 0.96. The “fold change - vehicle control” value (protein TB09.160.3670 RIBOSOMAL PROTEIN S6, PUTATIVE) was 0.84, the “fold change - vehicle control” value (protein TB09.211.2630 60S RIBOSOMAL PROTEIN L23, PUTATIVE) was 1.12 and the “fold change - vehicle control” value (protein TB09.211.4513 KIN[…] PROTEIN KMP-11) was 0.9. For the same compound, the “fold change - vehicle control” value (protein TB11.V4.0005 RIBONUCLEOSIDE-DIPHOSPHATE REDUCTASE SMALL CHAIN) was 0.86, the “fold change - vehicle control” value (protein TB11.01.0870 R[…] A, 51KDA SUBUNIT, PUTATIVE) was 1.05 and the “fold change - vehicle control” value (protein TB11.01.2560 40S RIBOSOMAL PROTEIN SA, PUTATIVE) was 1.05. For the same compound, the “fold change - vehicle control” value (protein TB11.01.4880 HY[…], CONSERVED) was 0.89, the “fold change - vehicle control” value (protein TB11.01.7090 HY[…], CONSERVED) was 0.9 and the “fold change - vehicle control” value (protein TB11.02.2510 GUANINE NUCLEOTIDE-BINDING BETA SUBUNIT-LIKE PROTEIN) was 0.96. The “fold change - vehicle control” value (protein TB11.02.4170 40S RIBOSOMAL PROTEIN S5, PUTATIVE) was 1.39, the “fold change - vehicle control” value (protein TB11.03.0250 C[…]) was 1.72 and the “fold change - vehicle control” value (protein TB11.46.0009 HY[…], CONSERVED) was 1.02. The “fold change - vehicle control” value (protein TB427TMP.01.0620 HY[…], CONSERVED) was 0.96, the “fold change - vehicle control” value (protein TB427TMP.01.1475 40S RIBOSOMAL PROTEIN S27, PUTATIVE) was 1.03 and the “fold change - vehicle control” value (protein TB427TMP.01.4280 HY[…], CONSERVED) was 0.85. For the same compound, the “fold change - vehicle control” value (protein TB427TMP.01.4650 HY[…], CONSERVED) was 1.21, the “fold change - vehicle control” value (protein TB427TMP.01.4810 HY[…], CONSERVED) was 0.93 and the “fold change - vehicle control” value (protein TB427TMP.01.5680 HY[…], CONSERVED) was 0.97. The “fold change - vehicle control” value (protein TB427TMP.01.8390 HY[…], CONSERVED) was 0.8, the “fold change - vehicle control” value (protein TB427TMP.02.0230 HY[…], CONSERVED) was 1.22 and the “fold change - vehicle control” value (protein TB427TMP.02.0460 NUCLEOPORIN) was 0.88. The “fold change - vehicle control” value (protein TB427TMP.02.1106 NUCLEOBASE/NUCLEOSIDE TRANSPORTER 8 1) was 1.35, the “fold change - vehicle control” value (protein TB427TMP.160.2050 ENDO-BETA-N-ACETYLGLUCOSAMINIDASE, PUTATIVE) was 0.89 and the “fold change - vehicle control” value (protein TB427TMP.160.4310 GLUTAMATE DEHYDROGENASE) was 0.49. The “fold change - vehicle control” value (protein TB427TMP.160.4450 40S RIBOSOMAL PROTEIN S3, PUTATIVE) was 1.06, the “fold change - vehicle control” value (protein TB427TMP.160.4630 HY[…], CONSERVED) was 0.91 and the “fold change - vehicle control” value (protein TB427TMP.160.5200 HY[…], CONSERVED) was 0.86. The “fold change - vehicle control” value (protein TB427TMP.160.5670 HY[…], CONSERVED) was 0.81, the “fold change - vehicle control” value (protein TB427TMP.211.0930 POLYADENYLATE-BINDING PROTEIN 1) was 1.27 and the “fold change - vehicle control” value (protein TB427TMP.211.1750 MIT[…] PROTEIN, PUTATIVE) was 0.97. For the same compound, the “fold change - vehicle control” value (protein TB427TMP.211.3510 ATP-DEPENDENT DEAD/H RNA HELICASE, PUTATIVE) was 0.96, the “fold change - vehicle control” value (protein TB427TMP.211.4540 RNA-BINDING PROTEIN, PUTATIVE) was 0.6 and the “fold change - vehicle control” value (protein TB427TMP.244.2840 HY[…], CONSERVED) was 1. The “fold change - vehicle control” value (protein TB427.01.1240 CYTIDINE TR[…], PUTATIVE) was 0.8, the “fold change - vehicle control” value (protein TB427.01.2570 COATOMER BETA SUBUNIT) was 0.82 and the “fold change - vehicle control” value (protein TB427.01.3910 HY[…], CONSERVED) was 0.61. For the same compound, the “fold change - vehicle control” value (protein TB427.02.450 RETRO[…] SPOT (RHS) PROTEIN, PUTATIVE) was 0.84, the “fold change - vehicle control” value (protein TB427.04.3350 HY[…], CONSERVED) was 1.08 and the “fold change - vehicle control” value (protein TB427.04.3890 ATP-DEPENDENT RNA HELICASE, PUTATIVE) was 0.83. The “fold change - vehicle control” value (protein TB427.04.4870 AMINO ACID TRANSPORTER, PUTATIVE) was 1.02, the “fold change - vehicle control” value (protein TB427.04.750 50S RIBOSOMAL PROTEIN L7AE, PUTATIVE) was 0.95 and the “fold change - vehicle control” value (protein TB427.04.960 HY[…], CONSERVED) was 0.72. For the same compound, the “fold change - vehicle control” value (protein TB427.05.1490 HY[…], CONSERVED) was 0.95, the “fold change - vehicle control” value (protein TB427.05.1780 HY[…], CONSERVED) was 0.73 and the “fold change - vehicle control” value (protein TB427.05.3030 INTR[…] PROTEIN IFT122, PUTATIVE) was 0.96. The “fold change - vehicle control” value (protein TB427.06.3110 PROTEIN KINASE, PUTATIVE (CRK11)) was 0.94, the “fold change - vehicle control” value (protein TB427.06.5110 DAMAGE-SPECIFIC DNA BINDING PROTEIN, PUTATIVE) was 0.9 and the “fold change - vehicle control” value (protein TB427.07.2670 HY[…], CONSERVED) was 0.98. For the same compound, the “fold change - vehicle control” value (protein TB427.07.3040 HY[…], CONSERVED) was 0.96, the “fold change - vehicle control” value (protein TB427.07.3530 HY[…], CONSERVED) was 0.91 and the “fold change - vehicle control” value (protein TB427.07.4970 GLUTAMINE SYNTHETASE, PUTATIVE) was 0.92. The “fold change - vehicle control” value (protein TB427.07.5560 GLUCOSAMINE-FRUCTOSE-6-PHOSPHATE AMINOTRANSFERASE, PUTATIVE) was 0.87, the “fold change - vehicle control” value (protein TB427.07.5890 HY[…], CONSERVED) was 0.8 and the “fold change - vehicle control” value (protein TB427.07.7070 HY[…], CONSERVED) was 0.79. The “fold change - vehicle control” value (protein TB427.07.7460 HY[…], CONSERVED) was 0.98, the “fold change - vehicle control” value (protein TB427.08.1500 HY[…], CONSERVED) was 0.94 and the “fold change - vehicle control” value (protein TB427.08.1840 HY[…], CONSERVED) was 0.7. For the same compound, the “fold change - vehicle control” value (protein TB427.08.1960 HY[…], CONSERVED) was 0.83, the “fold change - vehicle control” value (protein TB427.08.2080 HY[…], CONSERVED) was 0.75 and the “fold change - vehicle control” value (protein TB427.08.3750 NUCLEOLAR PROTEIN, PUTATIVE) was 1.04. For the same compound, the “fold change - vehicle control” value (protein TB427.08.6390 LYSOPHOSPHOLIPASE, PUTATIVE) was 0.97, the “fold change - vehicle control” value (protein TB427.10.10610 PROTEIN TYROSINE PHOSPHATASE, PUTATIVE) was 0.94 and the “fold change - vehicle control” value (protein TB427.10.1100 60S RIBOSOMAL PROTEIN L9, PUTATIVE) was 1.08. For the same compound, the “fold change - vehicle control” value (protein TB427.10.12740) was 0.97, the “fold change - vehicle control” value (protein TB427.10.15720 […]-ATP-ASE SUBUNIT 9) was 0.81 and the “fold change - vehicle control” value (protein TB427.10.2440 METACASPASE MCA4) was 0.88. The “fold change - vehicle control” value (protein TB427.10.2900 IMPORTIN BETA-1 SUBUNIT, PUTATIVE) was 0.94, the “fold change - vehicle control” value (protein TB427.10.3470 HY[…], CONSERVED) was 0.79 and the “fold change - vehicle control” value (protein TB427.10.4110 60S RIBOSOMAL PROTEIN L30) was 0.93. The “fold change - vehicle control” value (protein TB427.10.4610 […]-MANNOSE SYNTHASE, PUTATIVE) was 0.93, the “fold change - vehicle control” value (protein TB427.10.5250 HY[…], CONSERVED) was 0.89 and the “fold change - vehicle control” value (protein TB427.10.5840 T[…] 1-BETA, PUTATIVE) was 0.85. The “fold change - vehicle control” value (protein TB427.10.7410 SUCCINYL-COA LIGASE GDP-FORMING] BETA-CHAIN, PUTATIVE) was 0.76, the “fold change - vehicle control” value (protein TB927.10.12960 RAS-RELATED PROTEIN RAB-5) was 1.03 and the “fold change - vehicle control” value (protein TB927.10.14800 PROTEIN KINASE, PUTATIVE) was 1.13. For the same compound, the “fold change - vehicle control” value (protein TB927.10.2980 […]-ATPASE SUBUNIT 11) was 1.09, the “fold change - vehicle control” value (protein TB927.10.3660 ASPARTATE AMINOTRANSFERASE) was 1.09 and the “fold change - vehicle control” value (protein TB927.10.4570 […] 2) was 0.79. The “fold change - vehicle control” value (protein TB927.10.5140 PROTEIN KINASE, PUTATIVE) was 0.91, the “fold change - vehicle control” value (protein TB927.10.6510 CHAPERONIN HSP60, MIT[…]) was 0.96 and the “fold change - vehicle control” value (protein TB927.3.1840 3-OXO-5-ALPHA-STEROID 4-DEHYDROGENASE, PUTATIVE) was 1.16. For the same compound, the “fold change - vehicle control” value (protein TB927.3.3780 TRYPAREDOXIN) was 0.92, the “fold change - vehicle control” value (protein TB927.3.740 HY[…], CONSERVED) was 0.95 and the “fold change - vehicle control” value (protein TB927.4.2740 HY[…], CONSERVED) was 0.85. The “fold change - vehicle control” value (protein TB927.4.3590 T[…] 1-BETA, PUTATIVE) was 0.81, the “fold change - vehicle control” value (protein TB927.6.4320 HY[…], CONSERVED) was 0.98 and the “fold change - vehicle control” value (protein TB927.7.2550 […] SUBUNIT 5) was 0.92. For the same compound, the “fold change - vehicle control” value (protein TB927.7.2980 HY[…], CONSERVED) was 0.88, the “fold change - vehicle control” value (protein TB927.7.5340 HY[…], CONSERVED) was 1.48 and the “fold change - vehicle control” value (protein TB927.7.7430 ATP SYNTHASE ALPHA CHAIN, MIT[…]) was 0.92. For the same compound, the “fold change - vehicle control” value (protein TB927.8.1990 PEROXIDOXIN) was 1.04 and the “fold change - vehicle control” value (protein TB927.8.4720 AMINO ACID TRANSPORTER, PUTATIVE) was 1.06.
